Data: publication PMC9299836 (eLife, 2022)
Where “and” joins values, the source holds several entries; their conditions need not be identical. Equal entries are not always repeated.

Assays:
mGluR2 [1] = molecular target: mGluR2 (Mus musculus, UniProt Q14BI2, INS715F); experiment: Live-cell FRET, azi-ECL2 (7TM domain, extracellular loop 2) sensor in HEK293T cells; details: for Mean normalized azi-ECL2 FRET response: glutamate + 10μM modulator, maximal response normalized to 1mM glutamate;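 on all read-outs here: Cy3/Cy5 click-labeled sensor, whole-membrane ROIs per cell, apparent FRET after bleed-through correction, ΔFRET as treatment minus pre-treatment signal, at room temperature, at least three biological replicates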
mGluR2 [2] = molecular target: mGluR2 (Mus musculus, UniProt Q14BI2, A548F); experiment: Single-molecule FRET (SiMPull) of azi-CRD: population histograms and state occupancy; details: azi-CRD, 10 μM modulator, fraction of total area;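 further: Cy3/Cy5-labelled receptor from HEK293T cell lysate captured on anti-FLAG surfaces, apparent FRET efficiency computed from donor and acceptor intensities with crosstalk correction, pooled into population histograms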
mGluR2 [3] = molecular target: mGluR2 (Mus musculus, UniProt Q14BI2); experiment: Functional calcium imaging, SNAP-mGluR2 (no FLAG-tag) with chimeric G protein Gqo5 in HEK293T cells; type: cell-based; design: Full length mGluR2 construct with an amber codon (TAG) mutation of amino acid A548 (azi-CRD) or N-terminal SNAP-tag (SNAP-mGluR2); host or cells: HEK293T; details: for Intracellular Ca2+ Response (normalized to 1mM glutamate), Mean: Glutamate + 1μM BINA
mGluR2 (Mus musculus, UniProt Q14BI2), sequence (Q14BI2 19-872): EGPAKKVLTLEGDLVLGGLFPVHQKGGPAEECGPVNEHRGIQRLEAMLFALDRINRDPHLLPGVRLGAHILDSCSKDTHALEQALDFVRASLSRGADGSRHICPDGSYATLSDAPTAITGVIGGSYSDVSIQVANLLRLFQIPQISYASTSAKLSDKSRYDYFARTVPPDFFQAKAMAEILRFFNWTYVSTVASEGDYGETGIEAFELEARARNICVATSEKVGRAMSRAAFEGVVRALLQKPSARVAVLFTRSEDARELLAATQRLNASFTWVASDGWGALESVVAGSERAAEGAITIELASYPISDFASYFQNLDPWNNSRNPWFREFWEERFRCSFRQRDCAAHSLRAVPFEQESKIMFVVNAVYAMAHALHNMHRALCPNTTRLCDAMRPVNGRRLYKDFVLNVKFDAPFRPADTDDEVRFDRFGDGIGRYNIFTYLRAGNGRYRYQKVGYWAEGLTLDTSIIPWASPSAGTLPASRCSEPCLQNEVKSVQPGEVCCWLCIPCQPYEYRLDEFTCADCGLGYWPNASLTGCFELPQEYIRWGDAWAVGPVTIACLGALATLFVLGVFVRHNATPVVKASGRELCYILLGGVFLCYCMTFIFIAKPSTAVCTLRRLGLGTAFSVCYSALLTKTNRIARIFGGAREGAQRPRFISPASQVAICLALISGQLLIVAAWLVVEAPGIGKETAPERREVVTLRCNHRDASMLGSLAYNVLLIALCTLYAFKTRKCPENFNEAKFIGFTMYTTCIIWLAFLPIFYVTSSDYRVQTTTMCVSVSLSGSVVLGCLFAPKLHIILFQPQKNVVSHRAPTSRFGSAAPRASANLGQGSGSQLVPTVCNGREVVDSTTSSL

mGluR2 (Mus musculus, UniProt Q14BI2, INS715F), sequence (Q14BI2 with tags, fused parts or gaps INS715F): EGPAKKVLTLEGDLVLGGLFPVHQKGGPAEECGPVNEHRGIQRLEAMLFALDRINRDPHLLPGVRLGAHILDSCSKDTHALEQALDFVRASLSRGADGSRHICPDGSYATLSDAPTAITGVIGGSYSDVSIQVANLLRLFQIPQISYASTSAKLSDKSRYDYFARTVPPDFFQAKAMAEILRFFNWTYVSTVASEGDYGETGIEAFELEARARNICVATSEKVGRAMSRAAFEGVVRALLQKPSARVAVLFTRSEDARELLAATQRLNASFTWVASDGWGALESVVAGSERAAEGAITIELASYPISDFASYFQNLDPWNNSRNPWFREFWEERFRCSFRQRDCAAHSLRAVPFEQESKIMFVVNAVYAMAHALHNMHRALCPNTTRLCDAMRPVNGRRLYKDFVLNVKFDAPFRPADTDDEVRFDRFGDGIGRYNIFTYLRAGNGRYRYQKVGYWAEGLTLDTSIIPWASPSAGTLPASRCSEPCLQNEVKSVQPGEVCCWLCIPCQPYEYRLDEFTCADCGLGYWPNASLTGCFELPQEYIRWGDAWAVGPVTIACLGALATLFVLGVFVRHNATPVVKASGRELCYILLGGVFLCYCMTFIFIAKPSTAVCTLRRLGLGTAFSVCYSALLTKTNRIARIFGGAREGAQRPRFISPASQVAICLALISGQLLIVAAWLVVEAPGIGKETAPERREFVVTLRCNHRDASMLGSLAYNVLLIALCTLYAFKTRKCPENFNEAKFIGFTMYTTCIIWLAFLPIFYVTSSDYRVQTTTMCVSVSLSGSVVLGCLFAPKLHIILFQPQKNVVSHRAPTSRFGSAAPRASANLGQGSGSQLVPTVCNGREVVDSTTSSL
mGluR2 (Mus musculus, UniProt Q14BI2, A548F), sequence (Q14BI2 19-872 A548F): as the sequence (Q14BI2 19-872) above, with A530F counted along it

With `Cc1c(OCc2cccc(-c3ccc(C(=O)O)cc3)c2)cc2c(c1C)C(=O)C(C1CCCC1)C2` (stereo not shown) [BINA] the “azi-ECL2 - ΔEfficacy, Mean ΔEfficacy” value (mGluR2 [1]; 10μM BINA, ([1 mM glutamate + modulator] - [1 mM glutamate]) × 100) was 42.1338, the “Mean ΔPotency” value (mGluR2 [1]; 10μM modulator, (([modulator + glutamate]EC50 – [glutamate] EC50)/[glutamate] EC50) × 100) was -51.0252 and the “ΔPotency, individual cell responses” value (mGluR2 [1]; 10μM modulator, single cells, (([modulator + glutamate]EC50 – [glutamate] EC50)/[glutamate] EC50) × 100) was -59.4349 and -64.4751 and -43.9117 and -59.7874 and -53.4508 and -10.4259 and -42.6395 and -39.4154 and -48.6344 and -48.1424 and -33.877 and -32.3399 and -71.1589 and -70.5942 and -70.1728 and -67.9438. For the same molecule, the “ΔEfficacy, individual cell responses” value (mGluR2 [1]; 10μM modulator, single cells, ([1 mM glutamate + modulator] - [1 mM glutamate]) × 100) was 29.3333 and 34.3873 and 67.0103 and 45.1311 and 54.8496 and 47.8253 and 100.958 and 52.7779 and 75.0355 and 26.9064 and 8.621 and 25.7313 and 7.026 and 14.2809, the “Mean max response (normalized max ΔFRET)” value (mGluR2 [1]; azi-ECL2, 1 mM glutamate + 10 μM modulator, normalized to 1 mM glutamate) was 1.42 and the “Hill slope of glutamate titration” value (mGluR2 [1]; azi-ECL2 sensor, + 10 μM modulator) was 1.06. For the same molecule, the “Mean normalized azi-ECL2 FRET response” value (mGluR2 [1]; log[Glutamate] (M) -3) was 1.421, the “Mean normalized azi-ECL2 FRET response” value (mGluR2 [1]; log[Glutamate] (M) -4.1549) was 1.469 and the “Mean normalized azi-ECL2 FRET response” value (mGluR2 [1]; log[Glutamate] (M) -4.52288) was 1.344. The “Mean normalized azi-ECL2 FRET response” value (mGluR2 [1]; log[Glutamate] (M) -5) was 1.155, the “Mean normalized azi-ECL2 FRET response” value (mGluR2 [1]; log[Glutamate] (M) -5.39794) was 0.8858 and the “Mean normalized azi-ECL2 FRET response” value (mGluR2 [1]; log[Glutamate] (M) -5.82391) was 0.584. The “Mean normalized azi-ECL2 FRET response” value (mGluR2 [1]; log[Glutamate] (M) -6.52288) was 0.1491, the “Mean normalized azi-ECL2 FRET response” value (mGluR2 [1]; log[Glutamate] (M) -7) was 0.03109 and the “Mean normalized azi-ECL2 FRET response” value (mGluR2 [1]; log[Glutamate] (M) -7.30103) was 0.00416. For the same molecule, the “Mean normalized azi-ECL2 FRET response” value (mGluR2 [1]; log[Glutamate] (M) -7.69897) was 0, the “Mean occupancy, state 1 (inactive, FRET 0.24)” value (mGluR2 [2]; 0 μM glutamate) was 0.3053 and the “Mean occupancy, state 2 (intermediate 1, FRET 0.38)” value (mGluR2 [2]; 0 μM glutamate) was 0.5199. The “Mean occupancy, state 3 (intermediate 2, FRET 0.70)” value (mGluR2 [2]; 0 μM glutamate) was 0.1483, the “Mean occupancy, state 4 (active, FRET 0.87)” value (mGluR2 [2]; 0 μM glutamate) was 0.02653 and the “Mean occupancy, state 1 (inactive, FRET 0.24)” value (mGluR2 [2]; 1000 μM glutamate) was 0.00296. For the same molecule, the “Mean occupancy, state 2 (intermediate 1, FRET 0.38)” value (mGluR2 [2]; 1000 μM glutamate) was 0.03751, the “Mean occupancy, state 3 (intermediate 2, FRET 0.70)” value (mGluR2 [2]; 1000 μM glutamate) was 0.2179 and the “Mean occupancy, state 4 (active, FRET 0.87)” value (mGluR2 [2]; 1000 μM glutamate) was 0.7416. The “Intracellular Ca2+ Response, % 1mM Glutamate” value (mGluR2 [3]; 1mM Glutamate + 1uM BINA, individual experiments) was 150.888% and 116.9% and 139.124%, the “Mean ΔEfficacy of glutamate” value (mGluR2 [3]; Ca2+ response, 1 mM glutamate + 1 μM modulator, ([1 mM glutamate + modulator] - [1 mM glutamate]) × 100) was 35.6375 and the “ΔEfficacy of glutamate, individual experiments” value (mGluR2 [3]; Ca2+ response, 1 mM glutamate + 1 μM modulator, single replicate) was 16.9004 and 39.1239 and 50.8883. For the same molecule, the “Mean ΔPotency of glutamate” value (mGluR2 [3]; Ca2+ response, glutamate + 1 μM modulator, (([modulator + glutamate]EC50 – [glutamate]EC50)/[glutamate]EC50) × 100) was -89.8956, the “ΔPotency of glutamate, individual experiments” value (mGluR2 [3]; Ca2+ response, glutamate + 1 μM modulator, single replicate) was -90.1258 and -89.6956 and -89.8653 and the “Intracellular Ca2+ Response (normalized to 1mM glutamate), Mean” value (mGluR2 [3]; log[Glutamate] (M) -3) was 1.356. For the same molecule, the “Intracellular Ca2+ Response (normalized to 1mM glutamate), Mean” value (mGluR2 [3]; log[Glutamate] (M) -3.60206) was 1.413, the “Intracellular Ca2+ Response (normalized to 1mM glutamate), Mean” value (mGluR2 [3]; log[Glutamate] (M) -4.1549) was 1.344 and the “Intracellular Ca2+ Response (normalized to 1mM glutamate), Mean” value (mGluR2 [3]; log[Glutamate] (M) -4.52288) was 1.309. For the same molecule, the “Intracellular Ca2+ Response (normalized to 1mM glutamate), Mean” value (mGluR2 [3]; log[Glutamate] (M) -5) was 1.259, the “Intracellular Ca2+ Response (normalized to 1mM glutamate), Mean” value (mGluR2 [3]; log[Glutamate] (M) -5.39794) was 1.0353 and the “Intracellular Ca2+ Response (normalized to 1mM glutamate), Mean” value (mGluR2 [3]; log[Glutamate] (M) -5.82391) was 0.6392. The “Intracellular Ca2+ Response (normalized to 1mM glutamate), Mean” value (mGluR2 [3]; log[Glutamate] (M) -6.52288) was 0.1098, the “Intracellular Ca2+ Response (normalized to 1mM glutamate), Mean” value (mGluR2 [3]; log[Glutamate] (M) -7) was 0 and the “Intracellular Ca2+ Response (normalized to 1mM glutamate), Mean” value (mGluR2 [3]; log[Glutamate] (M) -7.30103) was 0. For the same molecule, the “Intracellular Ca2+ Response (normalized to 1mM glutamate), Mean” value (mGluR2 [3]; log[Glutamate] (M) -7.69897) was 0.
